{"source": "patent US20050197350A1", "about": "“Novel quinoline, tetrahydroquinazoline, and pyrimidine derivatives and methods of treatment related to the use thereof” (TAISHO PHARMACEUTICAL CO., LTD., priority 2003, published 2005)"}
{"test_system": "MCH receptors", "experiment": "MCH receptor activity class (method not given)", "settings": "MCH receptor activity class 1-3 (percent of control at 10^-7 M or IC50)"}
{"smiles": "Cc1cc([N+](=O)[O-])ccc1NC(=S)N[C@H]1CC[C@@H](Nc2nccc(N(C)C)n2)CC1", "note": "[compound 2336]", "class": "3 (Class 3 The value of percent of control at 10^−7 M was more than 60% or the value of IC50 was more than 200 nM.)"}
{"smiles": "CN(C)c1ccnc(N[C@H]2CC[C@@H](NC(=S)NCc3cccc(Cl)c3)CC2)n1", "note": "[compound 2337]", "class": "3 (Class 3 The value of percent of control at 10^−7 M was more than 60% or the value of IC50 was more than 200 nM.)"}
{"smiles": "CCOC(=O)c1cccc(NC(=S)N[C@H]2CC[C@@H](Nc3nccc(N(C)C)n3)CC2)c1", "note": "[compound 2338]", "class": "3 (Class 3 The value of percent of control at 10^−7 M was more than 60% or the value of IC50 was more than 200 nM.)"}
{"smiles": "CN(C)c1ccnc(N[C@H]2CC[C@@H](NC(=S)Nc3ccc(Cl)cc3C(F)(F)F)CC2)n1", "note": "[compound 2339]", "class": "3 (Class 3 The value of percent of control at 10^−7 M was more than 60% or the value of IC50 was more than 200 nM.)"}
{"smiles": "Cc1cc(F)ccc1NC(=S)N[C@H]1CC[C@@H](Nc2nccc(N(C)C)n2)CC1", "note": "[compound 2340]", "class": "3 (Class 3 The value of percent of control at 10^−7 M was more than 60% or the value of IC50 was more than 200 nM.)"}
{"smiles": "COc1ccc(NC(=S)N[C@H]2CC[C@@H](Nc3nccc(N(C)C)n3)CC2)c(C)c1", "note": "[compound 2341]", "class": "3 (Class 3 The value of percent of control at 10^−7 M was more than 60% or the value of IC50 was more than 200 nM.)"}
{"smiles": "COc1cc(OC)c(NC(=S)N[C@H]2CC[C@@H](Nc3nccc(N(C)C)n3)CC2)cc1Cl", "note": "[compound 2342]", "class": "1 (Class 1: The value of percent of control at 10^−7 M was less than 40% or the value of IC50 was less than 50 nM.)"}
{"smiles": "C[C@@H](NC(=S)N[C@H]1CC[C@@H](Nc2nccc(N(C)C)n2)CC1)c1ccccc1", "note": "[compound 2343]", "class": "3 (Class 3 The value of percent of control at 10^−7 M was more than 60% or the value of IC50 was more than 200 nM.)"}
{"smiles": "Cc1cccc(NC(=S)N[C@H]2CC[C@@H](Nc3nccc(N(C)C)n3)CC2)c1C", "note": "[compound 2344]", "class": "3 (Class 3 The value of percent of control at 10^−7 M was more than 60% or the value of IC50 was more than 200 nM.)"}
{"smiles": "CN(C)c1ccnc(N[C@H]2CC[C@@H](NC(=S)Nc3c(F)cc(Br)cc3Br)CC2)n1", "note": "[compound 2345]", "class": "2 (Class 2: The value of percent of control at 10^−7 M was from 40% to 60% or the value of IC′50 was from 50 nM to 200 nM.)"}
{"smiles": "Cc1cc(Cl)cc(Cl)c1NC(=S)N[C@H]1CC[C@@H](Nc2nccc(N(C)C)n2)CC1", "note": "[compound 2346, N-(2,4-dichloro-6-methylphenyl)-N′-(cis-4-{[4-(dimethylamino)pyrimidin-2-yl]amino}cyclohexyl)thiourea]", "class": "2 (Class 2: The value of percent of control at 10^−7 M was from 40% to 60% or the value of IC′50 was from 50 nM to 200 nM.)"}
{"smiles": "CCOc1ccccc1NC(=S)N[C@H]1CC[C@@H](Nc2nccc(N(C)C)n2)CC1", "note": "[compound 2347]", "class": "3 (Class 3 The value of percent of control at 10^−7 M was more than 60% or the value of IC50 was more than 200 nM.)"}
{"smiles": "Cc1cccc(C(C)C)c1NC(=S)N[C@H]1CC[C@@H](Nc2nccc(N(C)C)n2)CC1", "note": "[compound 2348]", "class": "3 (Class 3 The value of percent of control at 10^−7 M was more than 60% or the value of IC50 was more than 200 nM.)"}
{"smiles": "CN(C)c1ccnc(N[C@H]2CC[C@@H](NC(=S)Nc3ccc4c(c3)OCCO4)CC2)n1", "note": "[compound 2349]", "class": "3 (Class 3 The value of percent of control at 10^−7 M was more than 60% or the value of IC50 was more than 200 nM.)"}
{"smiles": "CN(C)c1ccnc(N[C@H]2CC[C@@H](NC(=S)Nc3ccc4c(c3)OCO4)CC2)n1", "note": "[compound 2350]", "class": "3 (Class 3 The value of percent of control at 10^−7 M was more than 60% or the value of IC50 was more than 200 nM.)"}
{"smiles": "Cc1c(Cl)cccc1NC(=S)N[C@H]1CC[C@@H](Nc2nccc(N(C)C)n2)CC1", "note": "[compound 2351]", "class": "3 (Class 3 The value of percent of control at 10^−7 M was more than 60% or the value of IC50 was more than 200 nM.)"}
{"smiles": "CN(C)c1ccnc(N[C@H]2CC[C@@H](NC(=S)Nc3ccc(Br)cc3OC(F)(F)F)CC2)n1", "note": "[compound 2352]", "class": "3 (Class 3 The value of percent of control at 10^−7 M was more than 60% or the value of IC50 was more than 200 nM.)"}
{"smiles": "COc1cc(NC(=S)N[C@H]2CC[C@@H](Nc3nccc(N(C)C)n3)CC2)c(OC)cc1Cl", "note": "[compound 2353]", "class": "3 (Class 3 The value of percent of control at 10^−7 M was more than 60% or the value of IC50 was more than 200 nM.)"}
{"smiles": "Cc1onc(-c2ccccc2)c1NC(=S)N[C@H]1CC[C@@H](Nc2nccc(N(C)C)n2)CC1", "note": "[compound 2354]", "class": "3 (Class 3 The value of percent of control at 10^−7 M was more than 60% or the value of IC50 was more than 200 nM.)"}
{"smiles": "COC(=O)c1scc(C)c1NC(=S)N[C@H]1CC[C@@H](Nc2nccc(N(C)C)n2)CC1", "note": "[compound 2356]", "class": "3 (Class 3 The value of percent of control at 10^−7 M was more than 60% or the value of IC50 was more than 200 nM.)"}
{"smiles": "COC(=O)c1sccc1NC(=S)N[C@H]1CC[C@@H](Nc2nccc(N(C)C)n2)CC1", "note": "[compound 2357]", "class": "3 (Class 3 The value of percent of control at 10^−7 M was more than 60% or the value of IC50 was more than 200 nM.)"}
{"smiles": "CCCCc1ccc(NC(=S)N[C@H]2CC[C@@H](Nc3nccc(N(C)C)n3)CC2)c(C)c1", "note": "[compound 2358]", "class": "3 (Class 3 The value of percent of control at 10^−7 M was more than 60% or the value of IC50 was more than 200 nM.)"}
{"smiles": "CN(C)c1cc(N[C@H]2CC[C@@H](CNC(=O)Nc3ccccc3Cl)CC2)nc2ccccc12", "note": "[compound 2359]", "class": "3 (Class 3 The value of percent of control at 10^−7 M was more than 60% or the value of IC50 was more than 200 nM.)"}
{"smiles": "Cc1cccc(C)c1NC(=O)NC[C@H]1CC[C@@H](Nc2cc(N(C)C)c3ccccc3n2)CC1", "note": "[compound 2360]", "class": "3 (Class 3 The value of percent of control at 10^−7 M was more than 60% or the value of IC50 was more than 200 nM.)"}
{"smiles": "CN(C)c1cc(N[C@H]2CC[C@@H](CNC(=O)Nc3ccc(F)cc3F)CC2)nc2ccccc12", "note": "[compound 2361]", "class": "3 (Class 3 The value of percent of control at 10^−7 M was more than 60% or the value of IC50 was more than 200 nM.)"}
{"smiles": "CCc1cccc(C)c1NC(=O)NC[C@H]1CC[C@@H](Nc2cc(N(C)C)c3ccccc3n2)CC1", "note": "[compound 2362, N-[(cis-4-{[4-(dimethylamino)quinolin-2-yl]amino}cyclohexyl)methyl]-N′-(2-ethyl-6-methylphenyl)urea]", "class": "2 (Class 2: The value of percent of control at 10^−7 M was from 40% to 60% or the value of IC′50 was from 50 nM to 200 nM.)"}
{"smiles": "CN(C)c1cc(N[C@H]2CC[C@@H](CNC(=O)Nc3ccc(F)cc3)CC2)nc2ccccc12", "note": "[compound 2364]", "class": "3 (Class 3 The value of percent of control at 10^−7 M was more than 60% or the value of IC50 was more than 200 nM.)"}
{"smiles": "CSc1ccc(NC(=O)NC[C@H]2CC[C@@H](Nc3cc(N(C)C)c4ccccc4n3)CC2)cc1", "note": "[compound 2365]", "class": "3 (Class 3 The value of percent of control at 10^−7 M was more than 60% or the value of IC50 was more than 200 nM.)"}
{"smiles": "CN(C)c1cc(N[C@H]2CC[C@@H](CNC(=O)Nc3ccccc3C(F)(F)F)CC2)nc2ccccc12", "note": "[compound 2366]", "class": "3 (Class 3 The value of percent of control at 10^−7 M was more than 60% or the value of IC50 was more than 200 nM.)"}
{"smiles": "Cc1cc(C)c(NC(=O)NC[C@H]2CC[C@@H](Nc3cc(N(C)C)c4ccccc4n3)CC2)c(C)c1", "note": "[compound 2367, N-[(cis-4-{[4-(dimethylamino)quinolin-2-yl]amino}cyclohexyl)methyl]-N′-mesitylurea]", "class": "2 (Class 2: The value of percent of control at 10^−7 M was from 40% to 60% or the value of IC′50 was from 50 nM to 200 nM.)"}
{"smiles": "Cc1ccccc1NC(=O)NC[C@H]1CC[C@@H](Nc2cc(N(C)C)c3ccccc3n2)CC1", "note": "[compound 2368]", "class": "3 (Class 3 The value of percent of control at 10^−7 M was more than 60% or the value of IC50 was more than 200 nM.)"}
{"smiles": "CN(C)c1cc(N[C@H]2CC[C@@H](CNC(=O)Nc3c(Cl)cc(Cl)cc3Cl)CC2)nc2ccccc12", "note": "[compound 2369, N-[(cis-4-{[4-(dimethylamino)quinolin-2-yl]amino}cyclohexyl)methyl]-N′-(2,4,6-trichlorophenyl)urea]", "class": "1 (Class 1: The value of percent of control at 10^−7 M was less than 40% or the value of IC50 was less than 50 nM.)"}
{"smiles": "CN(C)c1cc(N[C@H]2CC[C@@H](CNC(=O)Nc3c(F)cc(Br)cc3Br)CC2)nc2ccccc12", "note": "[compound 2371, N-(2,4-dibromo-6-fluorophenyl)-N′-[(cis-4-{[4-(dimethylamino)quinolin-2-yl]amino}cyclohexyl)methyl]urea]", "class": "1 (Class 1: The value of percent of control at 10^−7 M was less than 40% or the value of IC50 was less than 50 nM.)"}
{"smiles": "CCc1cccc(CC)c1NC(=O)NC[C@H]1CC[C@@H](Nc2cc(N(C)C)c3ccccc3n2)CC1", "note": "[compound 2372]", "class": "2 (Class 2: The value of percent of control at 10^−7 M was from 40% to 60% or the value of IC′50 was from 50 nM to 200 nM.)"}
{"smiles": "CN(C)c1cc(N[C@H]2CC[C@@H](CNC(=O)Nc3c(Cl)cccc3C(F)(F)F)CC2)nc2ccccc12", "note": "[compound 2373]", "class": "2 (Class 2: The value of percent of control at 10^−7 M was from 40% to 60% or the value of IC′50 was from 50 nM to 200 nM.)"}
{"smiles": "Cc1cccc(Cl)c1NC(=O)NC[C@H]1CC[C@@H](Nc2cc(N(C)C)c3ccccc3n2)CC1", "note": "[compound 2374]", "class": "3 (Class 3 The value of percent of control at 10^−7 M was more than 60% or the value of IC50 was more than 200 nM.)"}
{"smiles": "CN(C)c1cc(N[C@H]2CC[C@@H](CNC(=O)NCc3ccccc3Cl)CC2)nc2ccccc12", "note": "[compound 2375]", "class": "3 (Class 3 The value of percent of control at 10^−7 M was more than 60% or the value of IC50 was more than 200 nM.)"}
{"smiles": "CCc1cccc(C(C)C)c1NC(=O)NC[C@H]1CC[C@@H](Nc2cc(N(C)C)c3ccccc3n2)CC1", "note": "[compound 2376, N-[(cis-4-{[4-(dimethylamino)quinolin-2-yl]amino}cyclohexyl)methyl]-N′-(2-ethyl-6-isopropylphenyl)urea]", "class": "1 (Class 1: The value of percent of control at 10^−7 M was less than 40% or the value of IC50 was less than 50 nM.)"}
{"smiles": "CCc1ccccc1NC(=O)NC[C@H]1CC[C@@H](Nc2cc(N(C)C)c3ccccc3n2)CC1", "note": "[compound 2377]", "class": "3 (Class 3 The value of percent of control at 10^−7 M was more than 60% or the value of IC50 was more than 200 nM.)"}
